Experimental data reported in US20230263822A1, “MODULATION OF FACTOR 11 EXPRESSION” (Ionis Pharmaceuticals, Inc., priority 2008, published 2023).
Entries after “also recorded” stand apart in the source; their conditions may differ. Like-named read-outs stand apart in the source and are kept apart here.

Columns and labels:
[1] = system: Factor 11 mRNA; test: Factor 11 mRNA in liver, FeCl3 induced venous thrombosis model vs warfarin (Example 11); assay type: in vivo, BALB/c mice; conditions: for % inhibition of Factor 11 mRNA in liver relative to PBS control: FeCl3 VT model
Procedure: (§1) Two control groups of BALB/c mice were treated with PBS, administered subcutaneously twice a week for 3 weeks. Two days after the last dose of PBS, mice in both groups were anesthetized with 150 mg/kg ketamine mixed with 10 mg/kg xylazine administered by intraperitoneal injection. Thrombus formation was induced with FeCl3 in all groups of mice except the first control group.
(§2) In mice undergoing FeCl3 treatment, thrombus formation was induced by applying a piece of filter paper (2×4 mm) pre-saturated with 10% FeCl3 solution directly on the vena cava. After 3 minutes of exposure, the filter paper was removed. Thirty minutes after the filter paper application, a fixed length of the vein containing the thrombus was dissected out for platelet analysis. Liver was collected for RNA analysis.
RNA was extracted from liver tissue for real-time PCR analysis of Factor 11.

[2] = system: platelet factor-4 (PF-4); test: Thrombus formation by PF-4 real-time PCR, FeCl3 induced venous thrombosis model vs warfarin (Example 11); assay type: in vivo, BALB/c mice; conditions: for PF-4 in vena cava, percentage as compared to PBS controls (thrombus formation): + FeCl3
Procedure: as §1, §2
Real-time PCR quantification of platelet factor-4 (PF-4) was used to quantify platelets in the vena cava as a measure of thrombus formation.

[3] = design: species or system BALB/c mice; conditions: mouse, in vivo; for Blood (tail bleeding, collected over 40 minutes): sc
Procedure: ISIS 404071 and Apixaban were evaluated in the tail bleeding model.
The saline filled tubes were weighed before and after bleeding.

[4] = system: blood coagulation; test: Ex vivo PT and aPTT in murine plasma, ISIS 404071 with LOVENOX (Example 16); design: species or system BALB/c mice; conditions: for PT INR in murine plasma / aPTT INR in murine plasma: LOVENOX 0
Procedure: A control mouse group was treated with PBS, administered twice a week for 3 weeks. Five days after the last dose, the mice were sacrificed and plasma was collected. The low-molecular-weight (LMW) heparin, LOVENOX, was administered to the plasma ex vivo at varying concentrations of 0 μg/ml, 2.5 μg/ml, 5.0 μg/ml, and 7.5 μg/ml. PT and aPTT were measured 20 minutes after LOVENOX was administered.

[5] = system: murine Factor 11 mRNA; test: Time course of Factor 11 mRNA reduction in liver after one dose (Example 29); assay type: in vivo; conditions: BALB/c mice, one s.c. dose of 50 mg/kg, 12 hours to 56 days
Procedure: One dose of 50 mg/kg ISIS 404071 was administered subcutaneously to BALB/c mice. Following ISIS 404071 administration, mice were sacrificed at 12 hours, 1 day, 2 days, 3 days, 4 days, 7 days, 14 days, 28 days, and 56 days. Whole liver was collected for RNA analysis and PPP was collected for aPTT analysis. A control group of mice was treated with one subcutaneous dose of PBS.
RNA was extracted from liver tissue for real-time PCR analysis of Factor 11. Results are presented relative to PBS control. […] Mice began regaining Factor 11 mRNA expression by day 14.

[6] = system: blood coagulation; test: PT and aPTT, combination with warfarin (Example 21); assay type: in vivo, BALB/c mice
Procedure: Plasma was collected from each group 5 days after the last dose was administered. […] In a final group of BALB/c mice, PBS was administered subcutaneously twice a week for three weeks, as a control. Plasma was collected 5 days after the last PBS treatment.
PT and aPTT values provided in Table 33 are reported as International Normalized Ratio (INR) values.

[7] = system: platelet factor-4 (PF-4); test: Factor 7a protein antidote: PF-4 in FeCl3 induced VT model (Example 24); assay type: in vivo, BALB/c mice; conditions: ISIS 404071 20 mg/kg s.c. twice a week for 3 weeks; human Factor 7a 5 μg/kg fifteen minutes before FeCl3 where given
Procedure: The effect of human Factor 7a (Factor VIIa) protein as an antidote for ISIS 404071 was tested in BALB/c mice. […] Thrombus formation was induced with FeCl3 in all of the mice except the first control group. Fifteen minutes before FeCl3 treatment, the first experimental group was treated with 5 μg/kg of human Factor 7a protein antidote (product no. 407act, American Diagnostica Inc.). Two days after their last dose, all mice were anesthetized with 150 mg/kg of ketamine mixed with 10 mg/kg of xylazine administered by intraperitoneal injection.
In mice undergoing FeCl3 treatment, thrombus formation was induced by applying a piece of filter paper (2×4 mm) pre-saturated with 10% FeCl3 solution directly on the vena cava. After 3 minutes of exposure, the filter paper was removed. Thirty minutes after the filter paper application, a fixed length of the vein containing the thrombus was dissected out for platelet analysis.
Real-time PCR quantification of platelet factor-4 (PF-4) was used to quantify platelets in the vena cava as a measure of thrombus formation. Results are presented as a percentage of PF-4 in antidote treated and untreated mice, as compared to the two PBS-treated control groups.

[8] = ISIS 404071 1.25 mg/kg subcutaneously twice a week for 3 weeks
[9] = ISIS 404071 5 mg/kg subcutaneously twice a week for 3 weeks
[10] = ISIS 404071 10 mg/kg subcutaneously twice a week for 3 weeks
[11] = ISIS 404071 20 mg/kg subcutaneously twice a week for 3 weeks
[12] = ISIS 404071 40 mg/kg subcutaneously twice a week for 3 weeks
[13] = ISIS 404071 10 mg/kg s.c. twice a week for 3 weeks
[14] = ISIS 404071 20 mg/kg s.c. twice a week for 3 weeks
[15] = ISIS 404071 40 mg/kg s.c. twice a week for 3 weeks
[16] = murine plasma, ISIS 404071 10-40 mg/kg in vivo, LOVENOX 0-7.5 μg/ml ex vivo
[17] = BALB/c mice, ISIS 404071 25 or 50 mg/kg, warfarin 2 mg/kg
[18] = ISIS 404071 25 mg/kg s.c. twice a week for 3 weeks
[19] = ISIS 404071 50 mg/kg s.c. twice a week for 3 weeks

ISIS 404071: antisense oligonucleotide targeted to murine Factor 11 mRNA, TGGTAATCCACTTTCAGAGG, target start site 869 (chemistry not given here)
Factor 11 mRNA in liver vs PBS control ([1]; FeCl3 induced VT model, ISIS 404071 1.25-40 mg/kg s.c. twice a week 3 weeks, warfarin 0.5-5 mg/kg daily 6 days): significant dose-dependent reduction of Factor 11 mRNA | % inhibition of Factor 11 mRNA in liver relative to PBS control [1, 8]: 0% | % inhibition of Factor 11 mRNA in liver relative to PBS control [1, 9]: 62% | % inhibition of Factor 11 mRNA in liver relative to PBS control [1, 10]: 78% | % inhibition of Factor 11 mRNA in liver relative to PBS control [1, 11]: 92% | % inhibition of Factor 11 mRNA in liver relative to PBS control [1, 12]: 96% | PF-4 in vena cava as measure of thrombus formation ([2]; FeCl3 induced VT model, vs PBS control): dose-dependent reduction of PF-4 in comparison to the PBS control for dosages of 5 mg/kg and higher | PF-4 in vena cava, percentage as compared to PBS controls (thrombus formation) [2, 8]: 143% | PF-4 in vena cava, percentage as compared to PBS controls (thrombus formation) [2, 9]: 95% | PF-4 in vena cava, percentage as compared to PBS controls (thrombus formation) [2, 10]: 21% | PF-4 in vena cava, percentage as compared to PBS controls (thrombus formation) [2, 11]: 37% | PF-4 in vena cava, percentage as compared to PBS controls (thrombus formation) [2, 12]: 20% | bleeding in tail bleeding assay [3]: did not affect bleeding | Blood (tail bleeding, collected over 40 minutes) ([3]; 1.25 mg/kg): 0.00 g | Blood (tail bleeding, collected over 40 minutes) ([3]; 5 mg/kg): 0.00 g | Blood (tail bleeding, collected over 40 minutes) ([3]; 10 mg/kg): 0.04 g | Blood (tail bleeding, collected over 40 minutes) ([3]; 25 mg/kg): 0.01 g | Blood (tail bleeding, collected over 40 minutes) ([3]; 50 mg/kg): 0.01 g | PT INR in murine plasma [4, 13]: 0.97 INR | aPTT INR in murine plasma [4, 13]: 1.14 INR | PT INR in murine plasma [4, 14]: 1.00 INR | aPTT INR in murine plasma [4, 14]: 1.28 INR | PT INR in murine plasma [4, 15]: 0.97 INR | aPTT INR in murine plasma [4, 15]: 1.52 INR | PT [4, 16]: does not significantly increase PT | aPTT [4, 16]: also increases aPTT in a dose-dependent manner | Factor 11 mRNA expression in liver over time [5]: significant Factor 11 mRNA down-regulation by day 1; also recorded: regained full Factor 11 mRNA expression by day 28; also recorded: did not experience a rebound effect | PT [6, 17]: not affected | aPTT [6, 17]: affected | PT INR [6, 18]: 0.98 INR | aPTT INR [6, 18]: 1.37 INR | PT INR [6, 19]: 0.93 INR | aPTT INR [6, 19]: 1.49 INR | PF-4 in vena cava, percentage as compared to PBS controls (thrombus formation) [7]: 18%
